According to US10059689B2, “Substituted heteroaryl compounds and methods of use” (Sunshine Lake Pharma Co., Ltd., priority 2014, dated 2018):

Target: T1, TYK2 (h) (Homo sapiens, UniProt P29597)
T1 construct: purchased Millipore UK Ltd (contract assay service)
Test: TYK2 (h) kinase assay
Assay type: biochemical
Experimental: Kinase assays can be performed by measurement of incorporation of γ-33P ATP into immobilized myelin basic protein (MBP). High binding white 384 well plates (Greiner) are coated with MBP (Sigma #M-1891) by incubation of 60 μL/well of 20 μg/mL MBP in Tris-buffered saline (TBS; 50 mM Tris pH 8.0, 138 mM NaCl, 2.7 mM KCl) for 24 h at 4° C. Plates are washed 3× with 100 μL TBS. Kinase reactions are carried out in a total volume of 34 μL in kinase buffer (according to the need to make, for example, 5 mM Hepes pH 7.6, 15 mM NaCl, 0.01% bovine gamma globulin (Sigma #I-5506), 10 mM MgCl2, 1 mM DTT, 0.02% TritonX-100). Compound dilutions are performed in DMSO and added to assay wells to a final DMSO concentration of 1%. Each data point is measured in duplicate, and at least two duplicate assays are performed for each individual compound determination. […] A mixture of unlabeled ATP and γ-33P ATP is added to start the reaction (2×10^6 cpm of γ-33P ATP per well (3000 Ci/mmole) and 10 μM unlabeled ATP, typically. The reactions are carried out for 1 h at room temperature with shaking Plates are washed 7× with TBS, followed by the addition of 50 μL/well scintillation fluid (Wallac). Plates are read using a Wallac Trilux counter. This is only one format of such assays; various other formats are possible, as known to one skilled in the art. […]

T1 sequence (P29597 whole entry): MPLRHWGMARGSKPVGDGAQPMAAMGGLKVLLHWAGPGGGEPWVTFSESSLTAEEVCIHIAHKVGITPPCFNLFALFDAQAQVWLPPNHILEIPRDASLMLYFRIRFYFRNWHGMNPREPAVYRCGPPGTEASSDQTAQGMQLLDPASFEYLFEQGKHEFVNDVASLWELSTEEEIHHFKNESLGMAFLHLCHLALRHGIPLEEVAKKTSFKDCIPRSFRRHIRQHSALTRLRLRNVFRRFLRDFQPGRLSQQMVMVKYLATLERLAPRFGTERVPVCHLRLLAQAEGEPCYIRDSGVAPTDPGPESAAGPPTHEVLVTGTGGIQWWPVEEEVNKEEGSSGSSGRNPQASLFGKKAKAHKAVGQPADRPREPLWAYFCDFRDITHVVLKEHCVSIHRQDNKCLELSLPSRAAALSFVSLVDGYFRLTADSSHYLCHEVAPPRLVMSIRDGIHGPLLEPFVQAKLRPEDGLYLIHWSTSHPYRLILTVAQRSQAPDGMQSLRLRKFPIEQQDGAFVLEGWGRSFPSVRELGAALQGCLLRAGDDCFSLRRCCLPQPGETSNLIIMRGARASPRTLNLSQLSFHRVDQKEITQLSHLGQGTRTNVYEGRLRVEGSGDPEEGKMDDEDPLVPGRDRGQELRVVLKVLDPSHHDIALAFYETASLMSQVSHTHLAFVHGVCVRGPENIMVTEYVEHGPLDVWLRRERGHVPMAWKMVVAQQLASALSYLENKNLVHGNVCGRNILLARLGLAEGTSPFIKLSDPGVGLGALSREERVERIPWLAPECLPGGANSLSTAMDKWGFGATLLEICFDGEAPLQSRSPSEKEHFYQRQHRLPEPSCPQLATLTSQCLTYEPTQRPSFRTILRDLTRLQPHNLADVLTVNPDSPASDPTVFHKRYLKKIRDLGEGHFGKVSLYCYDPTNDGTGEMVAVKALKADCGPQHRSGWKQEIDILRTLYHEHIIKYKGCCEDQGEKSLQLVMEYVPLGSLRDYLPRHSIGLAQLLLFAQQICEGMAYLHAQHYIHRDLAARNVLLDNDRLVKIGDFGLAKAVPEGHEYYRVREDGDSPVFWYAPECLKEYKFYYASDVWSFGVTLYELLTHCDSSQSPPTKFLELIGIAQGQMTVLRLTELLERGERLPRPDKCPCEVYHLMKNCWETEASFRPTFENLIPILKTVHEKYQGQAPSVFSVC

| IC50 [nM] | Compound |
| --- | --- |
| 22 | CN(c1nc(Nc2cnn(C)c2)ncc1Cl)C1CCN(c2ccc(C#N)cn2)CC1 [Ex. 5, 6-(4-((5-chloro-2-((1-methyl-1H-pyrazol-4-yl)amino)pyrimidin-4-yl) (methyl)amino)piperidin-1-yl)nicotinonitrile] |
| 2 | Cc1c2ccc(Nc3ncc(Cl)c(NC4CCN(c5ccc(C#N)cn5)CC4)n3)cc2nn1C [Ex. 4] |
